Data: patent US20130209625A1, “METHODS AND COMPOSITIONS FOR STIMULATING A FELIDAE T1R RECEPTOR” (MONELL CHEMICAL SENSES CENTER, priority 2010, published 2013)

Tested on: Felidae T1R1/T1R3 receptor
Assay: Calcium imaging (fura-2, F340/F380) of HEK293 cells expressing T1R1/T1R3 receptor and Gα15, responses to taste stimuli
Assay type: cell-based, cat
From the text: Provided herein are methods for determining if two or more test compounds have an augmenting effect on the T1R1/T1R3 receptor where each test compound alone elicits a small or moderate response comprising contacting the receptor with the test compounds, and measuring the response of the receptor to the test compounds, wherein the compounds have an augmenting effect on the receptor if the response of the receptor to the compounds in a mixture in which each compound is presented at a given concentration is greater than the response to either one of the compounds alone at its given respective concentration. Responses are measured in terms of the Fluorescence Ratio F340/F380 as detailed in the Examples. Responses are gauged by comparing each response with the response to 100 μM isoproterenol, the positive control which activates the cell through Gα15. A null response is less than 10% of the control response. A small or moderate response is equal to or greater than 10% of the control response. In some preferred embodiments, the T1R1/T1R3 receptor is a Felidae T1R1/T1R3 receptor
b. Cell Transfection: HEK293 cell lines that stably express Gα15 were grown and maintained at 37° C. DMEM supplemented with 10% FBS and MEM nonessential amino acids (Invitrogen); the medium for Gα15 transfected cells contains 5 μg/ml blasticidin (Invitrogen). Cells were co-transfected with expression constructs by using Lipofectamine 2000 reagent (Invitrogen). T1R1/T1R3 transfected cells were selected using Zeocin (100 μg/ml) and hygromycin (400 μg/ml).
c. Establishing stable cell lines: Transfected cells were maintained in antibiotic selective medium until colonies appear. Single colonies were identified two weeks after transfection and were examined for RNA expression by RT-PCR and for protein expression by immunohistochemistry. Positive colonies confirmed by RT-PCR and immunohistochemistry were stocked in liquid nitrogen as stable cell lines expressing T1R1/T1R3.
a. In vitro assays: HEK293 cells' responses to taste stimuli were measured using calcium imaging techniques (Nelson et al. 2001, Li et al. 2002, Gomez et al. 2005). Transfected cells were loaded with fura-2 containing buffer for one hour. Coverslips with fura-2 loaded cells were then placed in a recording chamber and continuously superfused with Hank's salt solution (Nelson et al. 2001). Enhancement solutions were applied by switching the superfusion, which allowed a complete change of bath solutions within 5-20 seconds, based on preliminary experiments with fluorescent dye for each setup and recording chamber. Calcium imaging recordings were performed using Imagemaster-5 multi-wavelength quantitative fluorescence imaging system (Photon Technology International, Inc.). Cells were illuminated with UV light at two wavelengths (340 or 380 nm). Intracellular calcium activity was computed from the ratio of emitted light from the 340/380 nm wavelengths. Excitation light was shuttered between acquisitions, with exposure times being minimized (typically 50-100 msec). Images are normally acquired every 2-5 sec. Using these conditions, cells remain viable in the recording setup for more than 2 h without significant effects of dye bleaching or baseline shifts. The use of ratiometric imaging reduces the problems associated with fluorescence quenching or dye loss that can generate artifacts using single-wavelength dyes.
b. Amino acid stimulation of the HEK transfected cell lines: In a typical experiment to determine if there is an interaction at the receptor between two compounds, the response (peak height of intracellular calcium concentration) to each compound as well as a mixture of the two compounds is measured. If each compound alone elicits a small or moderate response, it will be necessary to compare responses to single compounds with a mixture in which each compound is presented at its initial test concentration. In this manner we can determine if the enhancement is greater than simple additivity. […]

NCCCC[C@H](N)C(=O)O [L-lysine]
response of HEK293 cells (calcium imaging) (FIG. 4, 5 cells, 25 mM L-lysine alone): null responses
response of HEK293 cell (calcium imaging) (FIG. 6, 25 mM L-lysine alone): null response (A null response is less than 10% of the control response)

O=C(O)[C@@H]1CCCN1 [L-proline]
response of HEK293 cell (calcium imaging) (FIG. 1, 25 mM L-proline alone, vs 100 μM isoproterenol positive control): null responses
response of HEK293 cells (calcium imaging) (FIG. 2, 3 cells, 50 mM L-proline alone): null responses
response of HEK293 cell (calcium imaging) (FIG. 3, 50 mM L-proline presented singly): null responses

N[C@@H](Cc1c[nH]cn1)C(=O)O [L-histidine]
augmentation of response by pyrophosphate (FIG. 4, 5 cells): not augmented
response of HEK293 cells (calcium imaging) (FIG. 4, 5 cells, 25 mM L-histidine alone): null responses
response of HEK293 cell (calcium imaging) (FIG. 5, 25 mM L-histidine alone): null responses

O=P([O-])([O-])OP(=O)([O-])O.[Na+].[Na+].[Na+] [sodium pyrophosphate, trisodium pyrophosphate]
response of HEK293 cell (calcium imaging) (FIG. 3, 10 mM sodium pyrophosphate presented singly): null responses
response of HEK293 cell (calcium imaging) (FIG. 3, 20 mM sodium pyrophosphate presented singly): null responses
response of HEK293 cells (calcium imaging) (FIG. 4, 5 cells, 20 mM sodium pyrophosphate alone): null responses
response of HEK293 cell (calcium imaging) (FIG. 6, 20 mM sodium pyrophosphate alone): weak response

C[C@H](N)C(=O)O [L-alanine]
response of HEK293 cell (calcium imaging) (FIG. 5, 25 mM L-alanine alone): null responses
